pEC50, pKd: −log10 of the molar value. A value given as a limit tells only on which side of the number the result lay.

The results in this text go back to US10947252B2, “Inhibitors of KEAP1-Nrf2 protein-protein interaction” (Janssen Pharmaceutica NV, priority 2018, dated 2021).

Assay [1] relates to Glo-Response ARE-luc2P HEK293 cell line. Briefly: ARE luciferase reporter cell-based assay.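 Note: luciferase signal tracks Nrf2 activation of the ARE once compounds disrupt KEAP1-Nrf2 binding, read with One-Glo reagent, DMSO serving as low control.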 Conditions: Homo sapiens, HEK293, 24 h, average of results obtained. A general note: A reporter such as luciferase makes a cellular process visible.
Method: The ARE assay utilizes a luciferase reporter cell line where the signal is proportional to NrF2 activation of the ARE. The cell line is commercially available from Promega and was prepared by stably transfecting HEK293 cells with a vector (pGL4.11) which contains the ARE response element upstream of a minimal promoter. The promoter drives expression of luc2 firefly luciferase gene. Upon disruption of KEAP1-Nrf2 binding by compound, Nrf2 translocates into the nucleus where it binds to the ARE and activates transcription of luciferase.
The materials used in this ARE assay are as follows: Glo-Response ARE-luc2P HEK293 cell line and One-Glo Luciferase Assay System were purchased from Promega (Madison, Wis.). Dulbecco's Modified Eagle medium ((DMEM), low glucose, GlutaMAX, pyruvate), fetal bovine serum (certified, heat inactivated), hygromycin B, Dulbecco's phosphate-buffered saline were purchased from Life Technologies (Grand Island, N.Y.). Penicillin, streptomycin solution (100×) and 0.05% trypsin-EDTA were purchased from Corning (Manassas, Va.). DMSO was purchased from EMD Millipore.
The ARE assay protocol is as follows: cells were maintained in growth medium (DMEM+10% FBS, 200 μg/mL hygromycin B, p-s) between 20-90% confluency by splitting twice per week. One day before the assay, cells were trypsinized, counted to determine viable cell count, and re-suspended in assay medium (DMEM+10% FBS, p-s) at 250,000 cells/mL. […] 100% DMSO was used as the low control. A 11-point dose series of the control compound was included on every plate. Compounds were spotted to an intermediate plate (Greiner #781280 V-bottom 384 well plate) using the Echo acoustic dispenser (Labscyte San Jose, Calif.). Spot size was 240 nL.
On the day of the assay, 60 mL per well of assay medium was added to the pre-spotted plate to make 2× compound stocks using the Combi (Thermo Waltham, Mass.). Compound and medium were mixed on the Janus and 20 mL of 2×compound stock was added to the cell plate which already contained 20 mL of assay medium from cell plating. […] The plates were returned to the tissue culture incubator for 24 hours.
The next day, luciferase activity was measured according to the manufacturer's protocol for One-Glo luciferase reagent. The plates were removed from the incubator and allowed to equilibrate to room temperature for 30 min. Forty microliters of One-Glo reagent (equilibrated to room temperature) was added per well using the Combi. The plates were mixed on an orbital shaker for 3 min. Luminescence was read on the BMG Pherastar multiplate reader (Cary, N.C.) using the luminescence protocol (1 sec interval).
The dose-response data were analyzed in Genedata Screener using 4PL nonlinear regression model. Raw luminescence counts as well as normalized values were used for data analysis.
For assay [2], the target named is Kelch domain of human KEAP1 (321-624 aa) (Homo sapiens (Human), UniProt Q14145). Put plainly: KEAP1 KELCH ThermoFluor binding assay.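 Note: Ligand-induced melting temperature shift of E. coli-expressed KEAP1 Kelch protein, Kd estimated from concentration-response curves of ΔTm.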 Conditions: KEAP Kelch […], 1,8-ANS, pH 7.0, average of results obtained, read-out: Tf Kd. On the technique in general: DSF heats the sample and reads unfolding from a dye or from intrinsic fluorescence.
Sequence of Kelch domain of human KEAP1 (321-624 aa) (Q14145 321-624): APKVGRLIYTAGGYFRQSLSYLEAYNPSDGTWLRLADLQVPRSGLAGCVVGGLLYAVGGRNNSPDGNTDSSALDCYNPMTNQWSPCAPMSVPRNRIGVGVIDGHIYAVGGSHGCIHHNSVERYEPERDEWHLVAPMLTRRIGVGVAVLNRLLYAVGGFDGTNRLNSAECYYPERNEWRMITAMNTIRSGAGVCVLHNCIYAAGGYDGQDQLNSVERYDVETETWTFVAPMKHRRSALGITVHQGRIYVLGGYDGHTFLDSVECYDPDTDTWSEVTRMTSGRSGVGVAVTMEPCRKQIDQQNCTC
From the text: The shift in the melting point described as a ΔTm is proportional to the concentration and affinity of the ligand. The compound potency may be compared as a rank order of either ΔTm values at a single compound concentration or in terms of KD values, estimated from concentration response curves.
The protein was expressed in E. coli with 6His tag that was cleaved prior to receipt for use.
Protein (KEAP Kelch) and compound solutions were dispensed into black 384-well polypropylene PCR microplates (Abgene) and overlayed with silicone oil (1 μL, Fluka, type DC 200) to prevent evaporation.

For `Cc1ccc([C@@H](c2ccn3c(C(F)(F)F)nnc3c2C)C(C)(C)C(=O)O)cc1CN1CC2(CCOCC2)Oc2nc(O[C@H](C)CN3CCCCC3)c(C)cc2S1(=O)=O` (single isomer, unassigned) [Example 601, (*S)-2,2-Dimethyl-3-(4-methyl-3-((8′-methyl-1′,1′-dioxido-7′-(((*R)-1-(piperidin-1-yl)propan-2-yl)oxy)-2,3,5,6-tetrahydrospiro[pyran-4,4′-pyrido[2,3-b][1,4,5]oxathiazepin]-2′,(3′H)-yl)methyl)phenyl)-3-(8-methyl-3-(trifluoromethyl)-[1,2,4]triazolo[4,3-a]pyridine-7-yl)propanoic Acid], the pEC50 in assay [1] was 8.32. Besides, the pKd in assay [2] is > 9.00.

On to `Cc1cc2cc(C(CC(=O)O)c3ccc(C)c(CN4C[C@@H]5CCCCN5c5ncccc5S4(=O)=O)c3)n(C)c2nn1` (mixture of isomers) [Example 440, 3-(3,7-Dimethyl-7H-pyrrolo[2,3-c]pyridazin-6-yl)-3-(3-(((S)-5,5-dioxido-7,7a,8,9,10,11-hexahydro-6H-dipyrido[2,1-d:2′,3′-f][1,2,5]thiadiazepin-6-yl)methyl)-4-methylphenyl)propanoic Acid], for which, in assay [1], the pEC50 was 6.15. Further, the pKd in assay [2] was > 9.00.

With `Cc1cnc2c(c1)S(=O)(=O)N(Cc1cc([C@@H](CC(=O)O)c3ccn4c(C(F)F)nnc4c3C)ccc1C)CC1(CC1)O2` (single isomer, unassigned) [Example 537, (*R)-3-(3-(Difluoromethyl)-8-methyl-[1,2,4]triazolo[4,3-a]pyridin-7-yl)-3-(4-methyl-3-((8′-methyl-1′,1′-dioxidospiro[cyclopropane-1,4′-pyrido[2,3-b][1,4,5]oxathiazepin]-2′(3′H)-yl)methyl)phenyl)propanoic Acid], the pEC50 in assay [1] was 6.33. Besides, the pKd in assay [2] was > 9.00.

In the case of `Cc1cnc2c(c1)S(=O)(=O)N(Cc1cc([C@@H](c3ccn4c(C(F)F)nnc4c3C)C(C)(C)C(=O)O)ccc1C)CC1(CCOCC1)O2` (single isomer, unassigned) [Example 576, (*S)-3-(3-(Difluoromethyl)-8-methyl-[1,2,4]triazolo[4,3-a]pyridin-7-yl)-2,2-dimethyl-3-(4-methyl-3-((8′-methyl-1′,1′-dioxido-2,3,5,6-tetrahydrospiro[pyran-4,4′-pyrido[2,3-b][1,4,5]oxathiazepin]-2′(3′H)-yl)methyl)phenyl)propanoic Acid], the pEC50 in assay [1] is 8.63. In addition, the pKd in assay [2] was > 9.00.

Take `Cc1ccc([C@H](CC(=O)O)c2ccn3c(C(F)(F)F)nnc3c2C)cc1CN1C[C@@H]2CCCCN2c2ncc(C#N)cc2S1(=O)=O` (single isomer, unassigned) [Example 10, (*S)-3-(3-(((*S)-3-Cyano-5,5-dioxido-7,7a,8,9,10,11-hexahydro-6H-dipyrido[2,1-d:2′,3′-f][1,2,5]thiadiazepin-6-yl)methyl)-4-methylphenyl)-3-(8-methyl-3-(trifluoromethyl)-[1,2,4]triazolo[4,3-a]pyridin-7-yl)propanoic Acid]: in assay [1], the pEC50 was 8.28. Besides, the pKd in assay [2] was > 9.00.

In assay [1], `Cc1cnc2c(c1)S(=O)(=O)N(Cc1cc([C@H](c3ccc4c(nnn4C4CC4)c3C)C(C)(C)C(=O)O)cnc1C)CC1(CC1)O2` (single isomer, unassigned) [Example 396, (*R)-3-(1-Cyclopropyl-4-methyl-1H-benzo[d][1,2,3]triazol-5-yl)-2,2-dimethyl-3-(6-methyl-5-((8′-methyl-1′,1′-dioxidospiro[cyclopropane-1,4′-pyrido[2,3-b][1,4,5]oxathiazepin]-2′(3′H)-yl)methyl)pyridin-3-yl)propanoic Acid] gave a pEC50 of 5.31. The pKd in assay [2] was 4.66.

With `Cc1ccc(C(CC(=O)O)c2ccn3c(C(F)F)nnc3c2C)cc1CN1C[C@H]2COCCN2c2ncccc2S1(=O)=O` (stereo in doubt) [Example 460, 3-(3-(Difluoromethyl)-8-methyl-[1,2,4]triazolo[4,3-a]pyridin-7-yl)-3-(3-(((*S)-5,5-dioxido-7a,8,10,11-tetrahydro-[1,4]oxazino[3,4-d]pyrido[2,3-f][1,2,5]thiadiazepin-6(7H)-yl)methyl)-4-methylphenyl)propanoic Acid], in assay [1], the pEC50 was 6.92. Further, in assay [2], the pKd is 8.56.

As for `Cc1cnc2c(c1)S(=O)(=O)N(Cc1cc([C@@H](CC(=O)O)c3ccn4c(C(F)(F)F)nnc4c3C)cnc1C)CC1(CC1)O2` (single isomer, unassigned) [Example 563, (*S)-3-(8-Methyl-3-(trifluoromethyl)-[1,2,4]triazolo[4,3-a]pyridin-7-yl)-3-(6-methyl-5-((8′-methyl-1′,1′-dioxidospiro[cyclopropane-1,4′-pyrido[2,3-b][1,4,5]oxathiazepin]-2′(3′H)-yl)methyl)pyridin-3-yl)propanoic Acid], the pEC50 in assay [1] is < 4.70. Moreover, the pKd in assay [2] was 7.68.

For `Cc1cnc2c(c1)S(=O)(=O)N(Cc1cc([C@H](c3ccn4c(C(F)(F)F)nnc4c3)C(C)(C)C(=O)O)ccc1C)CC1(CC1)O2` (single isomer, unassigned) [Example 324, (*R)-2,2-Dimethyl-3-(4-methyl-3-((8′-methyl-1′,1′-dioxidospiro[cyclopropane-1,4′-pyrido[2,3-b][1,4,5]oxathiazepin]-2′(3′H)-yl)methyl)phenyl)-3-(3-(trifluoromethyl)-[1,2,4]triazolo[4,3-a]pyridin-7-yl)propanoic Acid], the pEC50 in assay [1] was 7.78. In addition, the pKd in assay [2] is > 9.00.

In the case of `Cc1ccc([C@@H](CC(=O)O)c2ccn3c(C)nnc3c2)cc1CN1C[C@H]2CCCN2c2ccccc2S1(=O)=O` (single isomer, unassigned) [Example 166, (*R)-3-(3-(((R)-5,5-Dioxido-7a,8,9,10-tetrahydrobenzo[f]pyrrolo[2,1-d][1,2,5]thiadiazepin-6(7H)-yl)methyl)-4-methylphenyl)-3-(3-methyl-[1,2,4]triazolo[4,3-a]pyridin-7-yl)propanoic Acid], in assay [1], the pEC50 is 5.15. In assay [2], the pKd is > 9.00.

For `CCn1nnc2c(C)c([C@H](c3cnc(C)c(CN4CC5(CCOCC5)Oc5ncccc5S4(=O)=O)c3)C(C)(C)C(=O)O)ccc21` (single isomer, unassigned) [Example 60, (*R)-3-(5-((1′,1′-Dioxido-2,3,5,6-tetrahydrospiro[pyran-4,4′-pyrido[2,3-b][1,4,5]oxathiazepin]-2′(3′H)-yl)methyl)-6-methylpyridin-3-yl)-3-(1-ethyl-4-methyl-1H-benzo[d][1,2,3]triazol-5-yl)-2,2-dimethylpropanoic Acid], the pEC50 in assay [1] was 4.91. The pKd in assay [2] is 4.39.

The compound `Cc1ccc([C@@H](c2ccn3c(C(F)(F)F)nnc3c2C)C(C)(C)C(=O)O)cc1CN1CC2(CC2)Oc2nc(OCCN3CCCC3)ccc2S1(=O)=O` (single isomer, unassigned) [Example 598, (*S)-3-(3-((1′,1′-dioxido-7′-(2-(pyrrolidine-1-yl)ethoxy)spiro[cyclopropane-1,4′-pyrido[2,3-b][1,4,5]oxathiazepin]-2′(3′H)-yl)methyl)-4-methylphenyl)-2,2-dimethyl-3-(8-methyl-3-(trifluoromethyl)-[1,2,4]triazolo[4,3-a]pyridine-7-yl)propanoic Acid] showed a pEC50 in assay [1] of 8.05. For the same compound, the pKd in assay [2] was > 9.00.

As to `Cc1ccc([C@@H](c2ccn3c(C(F)(F)F)nnc3c2C)C(C)(C)C(=O)O)cc1CN1CC2(CC2)Oc2nc(OCCN3CC(F)C3)c(C)cc2S1(=O)=O` (single isomer, unassigned) [Example 596, (*S)-3-(3-((7′-(2-(3-fluoroazetidin-1-yl)ethoxy)-8′-methyl-1′,1′-dioxidospiro[cyclopropane-1,4′-pyrido[2,3-b][1,4,5]oxathiazepin]-2′(3′H)-yl)methyl)-4-methylphenyl)-2,2-dimethyl-3-(8-methyl-3-(trifluoromethyl)-[1,2,4]triazolo[4,3-a]pyridine-7-yl)propanoic Acid], the pEC50 in assay [1] is 8.51. The pKd in assay [2] is > 9.00.

On to `CCn1nnc2c(C)c([C@@H](c3ccc(C)c(CN4CC5(CCOCC5)Oc5ncc(C)cc5S4(=O)=O)n3)C(C)(C)C(=O)O)ccc21` (single isomer, unassigned) [Example 558, (*R)-3-(1-Ethyl-4-methyl-1H-benzo[d][1,2,3]triazol-5-yl)-2,2-dimethyl-3-(5-methyl-6-((8′-methyl-1′,1′-dioxido-2,3,5,6-tetrahydrospiro[pyran-4,4′-pyrido[2,3-b][1,4,5]oxathiazepin]-2′(3′H)-yl)methyl)pyridin-2-yl)propanoic Acid], for which the pEC50 in assay [1] is 6.71. Also, the pKd in assay [2] is 6.46.

For the compound `Cc1cnc2c(c1)S(=O)(=O)N(Cc1nc([C@H](CC(=O)O)c3ccn4c(C(F)(F)F)nnc4c3C)ccc1C)C[C@@H]1CCCCN21` (single isomer, unassigned) [Example 489, (*R)-3-(8-Methyl-3-(trifluoromethyl)-[1,2,4]triazolo[4,3-a]pyridin-7-yl)-3-(5-methyl-6-(((*S)-3-methyl-5,5-dioxido-7,7a,8,9,10,11-hexahydro-6H-dipyrido[2,1-d:2′,3′-f][1,2,5]thiadiazepin-6-yl)methyl)pyridin-2-yl)propanoic Acid], the pEC50 in assay [1] is 7.53. The pKd in assay [2] is > 9.00.

For the compound `Cc1ccc(C(CC(=O)O)c2ccn3c(C(F)(F)F)nnc3c2C)cc1CN1C[C@H]2CCCCN2c2ncccc2S1(=O)=O` (stereo in doubt) [Example 271, 3-(3-(((*R)-5,5-Dioxido-7,7a,8,9,10,11-hexahydro-6H-dipyrido[2,1-d:2′,3′-f][1,2,5]thiadiazepin-6-yl)methyl)-4-methylphenyl)-3-(8-methyl-3-(trifluoromethyl)-[1,2,4]triazolo[4,3-a]pyridin-7-yl)propanoic Acid], in assay [1], the negative-log EC50 (pEC50) is 7.64. Further, the negative logarithm of the Kd (pKd) in assay [2] was > 9.00.

By pEC50 is commonly meant −log10 of the EC50, conventionally taken in molar units. The low end stands for a high EC50, the high end for a low EC50. As a reminder, the pKd is the Kd on a negative log10 scale, so that one unit is a factor of ten.
